Here are results for one compound from patent publication US8188102B2, “Amide derivative for inhibiting the growth of cancer cells” (Hanmi Holdings Co., Ltd., priority 2007, dated 2012).

Where two headings read alike, the source gives them in different places.

The test system of experiment [1] is A431 skin cancer cell line. The experiment is described as follows: Cancer cell growth inhibition, A431 (SRB). The conditions noted are these: Homo sapiens, A-431, 72 h, read-out: ID50 (nM) A431.
Experiment [2] has as its system H1975 lung cancer cell line. The experiment is described as follows: Cancer cell growth inhibition, H1975 (celltiter). The conditions noted are these: Homo sapiens, NCI-H1975, 48 h, read-out: IC50 (nM) H1975.
Experimental: The medium was removed from each well of the 96-well plate.
In case of H1975, the cells were diluted with a culture medium to a concentration of 50,000 cells/ml. 100 μl of the diluted cell solution was added to each well of a 96-well plate, and, after 1 day, was washed with a mixture of RPMI, 0.1% FBS and 1% penicillin-streptomycin (PS), followed by replacement of the medium. The plate was allowed to be kept overnight and be treated to various concentrations under the same medium condition for 48 hrs. Similarly to an MTT assay, 15 μl of a celltiter one shot solution (Promega) was added to each well, which was incubated for 2 to 3 hrs, and, then, the absorbance at 490 nm was determined.
Experiment [3] relates to SK-Br3 breast cancer cell line. Put plainly: Cancer cell growth inhibition, SK-Br3 (SRB). The conditions noted are these: Homo sapiens, SK-BR-3, 72 h, read-out: ID50 (nM) SK-Br3.
For the next experiment, the target named is T1, EGFR (Homo sapiens, UniProt P00533).
T1 construct: A skin cancer cell line, A431 (ATCC: CRL-1555), was used; endogenous in cells; host or cells: A431 (ATCC: CRL-1555)
T1 sequence (P00533 25-1210): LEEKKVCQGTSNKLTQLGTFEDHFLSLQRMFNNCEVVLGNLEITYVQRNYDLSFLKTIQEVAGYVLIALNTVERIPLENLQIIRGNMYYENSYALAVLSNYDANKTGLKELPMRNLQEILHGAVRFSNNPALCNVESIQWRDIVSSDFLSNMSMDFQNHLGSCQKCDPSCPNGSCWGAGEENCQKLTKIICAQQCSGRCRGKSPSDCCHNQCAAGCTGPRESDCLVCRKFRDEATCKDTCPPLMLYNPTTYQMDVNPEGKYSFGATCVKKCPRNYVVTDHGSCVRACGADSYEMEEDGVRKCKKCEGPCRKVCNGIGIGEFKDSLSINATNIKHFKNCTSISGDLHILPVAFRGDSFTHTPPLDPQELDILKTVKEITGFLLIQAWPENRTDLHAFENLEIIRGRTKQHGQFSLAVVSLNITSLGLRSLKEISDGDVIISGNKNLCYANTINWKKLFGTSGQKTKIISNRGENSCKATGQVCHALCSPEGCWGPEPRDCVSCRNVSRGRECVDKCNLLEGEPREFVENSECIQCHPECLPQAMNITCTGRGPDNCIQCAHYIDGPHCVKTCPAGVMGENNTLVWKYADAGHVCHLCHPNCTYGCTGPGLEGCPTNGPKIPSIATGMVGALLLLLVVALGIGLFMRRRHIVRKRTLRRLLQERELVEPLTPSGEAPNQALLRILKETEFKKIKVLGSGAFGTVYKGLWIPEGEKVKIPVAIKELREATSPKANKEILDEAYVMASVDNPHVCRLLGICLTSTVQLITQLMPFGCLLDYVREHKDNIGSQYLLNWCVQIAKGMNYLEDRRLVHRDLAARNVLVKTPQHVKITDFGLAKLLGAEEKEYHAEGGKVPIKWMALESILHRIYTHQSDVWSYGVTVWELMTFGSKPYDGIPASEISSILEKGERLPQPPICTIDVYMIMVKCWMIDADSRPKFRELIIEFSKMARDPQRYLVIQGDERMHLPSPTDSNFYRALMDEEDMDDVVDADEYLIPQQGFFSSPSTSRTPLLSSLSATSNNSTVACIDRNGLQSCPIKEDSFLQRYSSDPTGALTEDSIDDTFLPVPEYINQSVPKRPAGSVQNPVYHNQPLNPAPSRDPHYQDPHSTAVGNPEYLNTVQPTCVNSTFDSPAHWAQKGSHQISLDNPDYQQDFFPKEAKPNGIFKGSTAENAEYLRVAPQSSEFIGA
The experiment is described as follows: Prolongation study in A431 cells (EGFR phosphorylation inhibition). It is filed as cell-based. The conditions noted are these: A-431, 1 μM for 4 hrs, then washed, EGF 100 ng/ml. The procedure: A skin cancer cell line, A431 (ATCC: CRL-1555), was used to test the degrees of the inventive compounds in inhibiting EGFR's phosphorylation and the prolongation of ability to inhibit it thereof.
The cell line was incubated in a culture flask at 37° C. under 95% air and 5% CO2 using a culture medium containing DMEM, 10% FBS and 1% PS. When more than 90% of the total volume of the culture flask became filled with cells, the cultured cell solution was subject to secondary incubation and was poured to each well of a 6-well plate to the extent of 500,000 cells/well. After 24 hrs, the cells were separated from the solution, washed with PBS, and incubated in a culture medium containing DMEM, 0.1% FBS and 1% PS for 16 hrs. The compounds obtained in Examples 1, 17, 19 and 36, and Tarceva as EGFR phosphorylation inhibitors were each added to the cell-containing well to a concentration of 1 μM. After 4 hrs, the cells were separated from the solution, washed 4 times with PBS after every 0, 2, 4 and 8 hrs, and incubated in a culture medium containing DMEM, 0.1% FBS and 1% PS. […] Just before the completion of the reaction, the cultured cell solution was treated with a 100 ng/ml concentration of EGF (Sigma, Cat No. E9644) for 5 mins to induce the activation of EGFR. After the completion of the reaction, the well plate holding the cultured cells was stored at −70° C. In control groups, the replacement of the medium was performed instead of the addition of the EGFR phosphorylation inhibitor, wherein the induction of EGFR activation using EGF was made only in a positive control group and not made in a negative control group.
For Western blot and enzyme immune measuring (ELISA) methods, the well plate stored at −70° C. was allowed to melt to room temperature, and then protein was extracted from the cells in the well plate using a protein extract buffer. The extraction of the protein was performed as follows: 250 μl of the protein extract buffer (Phosphosafe extraction reagent, Calbiochem, Cat No. 71296-3) comprising protease inhibitor cocktail was added to each cell-containing well, which was stirred at room temperature for 5 mins. The cells were collected using a cell scraper and put in an 1.5 ml tube, which was centrifuged at a speed of 16,000×g for 5 mins. The upper layer thus obtained was separated, of which the protein content was determined by a protein assay kit (Bio-rad, Cat No. 500-0116). The protein extracted was diluted with PBS to a concentration of 0.8 mg/ml.
A human EGFR (py1173) immunoassay kit (Biosource, Cat No. KHR9071) was used in the enzyme immune measuring method. 100 μl of the sample which was diluted by 4 folds with a standard dilution buffer in a kit was added to a strip well, which was incubated at a 4° C. refrigerator overnight. The cultured cells was separated therefrom and washed 4 times with 200 μl of a washing buffer. 100 μl of the resulting primary antibody (anti-human EGFR [pY1173]) was put to each strip well, incubated at 37° C. for 1 hr, and washed 4 times with 200 μl of a washing buffer. The resulting secondary antibody (anti-rabbit IgG-HRP) was diluted by 100 folds with an HRP dilution buffer in a kit. 100 μl of the dilute was put to each strip well, incubated at 37° C. for 30 mins, and washed 4 times with 200 μl of the washing buffer. 100 μl of an HRP substrate in a kit was put to each strip well and incubated in a darkroom for 10 to 30 mins. 100 μl of a reaction stop solution was added thereto to terminate the reaction, and then, the absorbance at 450 nm was observed.
Electrophoresis and Western blot methods were conducted based on the conventional methods in the following: An LDS buffer was added to each sample, which was allowed to boil at 70° C. for 10 mins. 10 μl of the resulting solution was loaded to a 12-well gel (Nupage 4˜12% Bis-tris gel, Invitrogen), followed by 120 volt-electrophoresis in a buffer (MOPS electrophoresis buffer, Invitrogen, Cat No. NP0006-1) for 2 hrs. […]

In experiment [4] the target is EGFR (EGFR type 1 kinase, Upstate) (Homo sapiens, UniProt P00533). Put plainly: Inhibition of EGFR enzyme (fluorescence polarization kinase assay). The conditions noted are these: read-out: IC50 (nM) EGFR; EGFR type 1 kinase, ATP 50 μM.
EGFR (EGFR type 1 kinase, Upstate), sequence (P00533 25-1210): as above
Experimental: 10 μl of an EGFR (EGFR type 1 kinase, Upstate, 10 ng/μl) was added to each well of a 96-well plate. […] The calculation and analysis of IC50 were carried out by using Microsoft Excel.
In experiment [5] the test system is SW-620 colon/rectal cancer cell line. Put plainly: Cancer cell growth inhibition, SW-620 (SRB). The conditions noted are these: Homo sapiens, SW-620, 72 h, read-out: IC50 (nM) SW-620.
For another experiment, the target named is EGFR T790M kinase (Homo sapiens, UniProt P00533, T790M). The experiment is described as follows: Inhibition of EGFR mutant enzyme (T790M). The conditions noted are these: read-out: IC50 (nM) T790M; EGFR T790M kinase.
EGFR T790M kinase, sequence (P00533 25-1210 T790M): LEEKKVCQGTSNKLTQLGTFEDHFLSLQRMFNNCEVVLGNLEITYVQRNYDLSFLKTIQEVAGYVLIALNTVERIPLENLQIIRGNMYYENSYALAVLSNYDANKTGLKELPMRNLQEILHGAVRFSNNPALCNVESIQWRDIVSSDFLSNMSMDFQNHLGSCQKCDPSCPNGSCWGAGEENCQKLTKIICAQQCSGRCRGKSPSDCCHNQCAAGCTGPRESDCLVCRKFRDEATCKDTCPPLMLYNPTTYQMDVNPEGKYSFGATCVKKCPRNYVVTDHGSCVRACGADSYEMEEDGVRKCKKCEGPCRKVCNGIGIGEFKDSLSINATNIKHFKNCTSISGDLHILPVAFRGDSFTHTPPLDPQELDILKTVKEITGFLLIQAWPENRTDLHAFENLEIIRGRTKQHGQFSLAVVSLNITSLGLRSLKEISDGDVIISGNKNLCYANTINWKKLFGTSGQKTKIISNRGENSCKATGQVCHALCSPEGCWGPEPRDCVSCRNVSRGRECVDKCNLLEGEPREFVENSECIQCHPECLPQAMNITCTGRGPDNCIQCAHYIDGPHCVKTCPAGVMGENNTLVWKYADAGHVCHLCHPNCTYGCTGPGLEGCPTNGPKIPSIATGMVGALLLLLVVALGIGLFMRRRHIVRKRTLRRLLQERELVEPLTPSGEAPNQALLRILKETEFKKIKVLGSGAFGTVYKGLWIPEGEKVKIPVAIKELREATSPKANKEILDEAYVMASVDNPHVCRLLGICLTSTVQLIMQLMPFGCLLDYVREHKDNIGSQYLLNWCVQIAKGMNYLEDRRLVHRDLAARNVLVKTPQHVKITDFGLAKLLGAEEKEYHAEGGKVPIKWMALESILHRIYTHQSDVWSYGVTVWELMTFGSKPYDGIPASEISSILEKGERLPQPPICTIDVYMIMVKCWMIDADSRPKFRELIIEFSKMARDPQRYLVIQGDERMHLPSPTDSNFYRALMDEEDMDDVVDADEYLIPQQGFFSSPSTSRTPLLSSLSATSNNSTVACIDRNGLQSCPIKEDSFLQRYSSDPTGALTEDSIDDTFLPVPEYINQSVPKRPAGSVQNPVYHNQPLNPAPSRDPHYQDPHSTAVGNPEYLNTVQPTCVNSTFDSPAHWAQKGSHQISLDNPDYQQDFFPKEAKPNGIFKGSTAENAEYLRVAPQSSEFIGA

As for `C=CC(=O)N1CCC(Oc2cc3c(Nc4ccc(F)c(Cl)c4F)ncnc3cc2OC)CC1` [Example 19, 1-(4-(4-(3-chloro-2,4-difluorophenylamino)-7-methoxyquinazolin-6-yloxy)piperidin-1-yl)pro-2-pen-1-one], the IC50 in experiment [1] was 0.3 nM; in experiment [2], 1.3 nM; in experiment [3], 0.3 nM; in experiment [4], 1.1 nM; in experiment [5] it was above 5000 nM; at EGFR T790M kinase it was 1.9 nM. Moreover, the inhibition at 1 µM at EGFR (0 hr after washing, read-out: EGFR phosphorylation inhibition in A431 cell line (%) 0 hr Avg.) came to 81%; at EGFR (8 hrs after washing, read-out: EGFR phosphorylation inhibition in A431 cell line (%) 8 hrs Avg.), 86%; on EGFR (24 hrs after washing, read-out: EGFR phosphorylation inhibition in A431 cell line (%) 24 hrs Avg.), 80%; on EGFR (48 hrs after washing, read-out: EGFR phosphorylation inhibition in A431 cell line (%) 48 hrs Avg.), 34%; on EGFR (72 hrs after washing, read-out: EGFR phosphorylation inhibition in A431 cell line (%) 72 hrs Avg.) it was 0%.
